Measured values: patent US20050031597A1, “Cells and improved method for preserving cells” (priority 2003, published 2005)

Tested on: erythrocytic cells
Assay: Hemolysis / survival of freeze-dried and rehydrated erythrocytic cells

Molecule	hemolysis after freeze-drying and rehydration (FIG. 22 [T+αC]+5 min+Zn: α-crystallin 1.2 mg/ml loading, 5 min pre-hydration, 500 μM ZnSO4 in rehydration buffer)	cell survival (α-crystallin, 5 min pre-hydration and 500 μM ZnSO4 combined)	cell survival after rehydration (1.2 mg/ml α-crystallin in loading plus 0.5 mg/ml α-crystallin in rehydration buffer)	hemolysis after freeze-drying and rehydration (FIG. 22 [T+αC]+5 min: α-crystallin 1.2 mg/ml in loading buffer, pre-hydrated 37° C. 5 min)	percent hemolysis after freeze-drying and direct rehydration (loaded in 800 mM trehalose, 100 mOsm ADSOL, 6.6 mM Na-phosphate and 1.2 mg/ml α-crystallin (FIG. 21))
O=S(=O)([O-])[O-].[Zn+2] [ZnSO4]	38%	62%			
α-crystallin: member of the small heat shock protein family			does not result in higher cell survival	47%	49%
